# Assay results: patent publication US11304964B2, “Bolaamphiphilic compounds, compositions and uses thereof” (priority 2012, dated 2022)
# Assays:
# [1] = CNS penetration effectiveness index; cited from earlier work
# [2] = Tenofovir encapsulation in bolaamphiphile vesicles (UV absorbance after Sephadex G50 separation); type: physicochemical
# Experimental: Bolaamphiphiles, cholesterol, and CHMES (2:1:1 mole ratio) are dissolved in chloroform or a suitable solvent. […] The solvents are evaporated under vacuum and the resultant thin films are hydrated in 0.2 mg/mL CF solution in PBS and probe-sonicated (Vibra-Cell VCX130 sonicator, Sonics and Materials Inc., Newtown, Conn., USA) with amplitude 20%, pulse on: 15 sec, pulse off: 10 sec to achieve homogenous vesicle dispersions. Vesicle size and zeta potential were determined using a Zetasizer Nano ZS (Malvern Instruments, UK).
# Methods were established to determine quantitatively the amount of the encapsulated tenofovir based on a UV absorption and determined the percent of tenofovir encapsulation by various vesicle formulations (data not shown). […] One objective of this work was to achieve the maximum amount of tenofovir encapsulated per vesicle along with a minimum loss of the non-encapsulated drug. Accordingly, several parameters were examined, such as varying the ratio among the vesicle components, changing the ratio of tenofovir to bolaamphiphiles, varying the pH of the hydration solution and also adding to the formulation additional additives, in the attempt to increase the encapsulation capacity of the vesicles.
# In particular, in order to maximize tenofovir encapsulation the following parameters were studied: (1) tenofovir to GLH ratio; (2) adjusting the concentrations of cholestyrl hemisuccinate (CHEM) and cholesterol (CHOL), components that are used in the vesicle formulation, (3) examining several buffers and pHs in the encapsulation process, (4) time of sonication, and (5) tenofovir concentration, and (6) addition of stearyl amine to the vesicle formulation to enhance encapsulation by complexation with tenofovir.
# The vesicles were prepared from formulations with and without SA and the non-encapsulated tenofovir (free tenofovir) was separated from the encapsulated tenofovir on Sephadex G50 column and the absorbance at 260 nm of each fraction collected from the column was read.
# [3] = HEPES pH 7.5, GLH 19/20 (2:1) 10 mg/ml, SA 1.25 mg/ml, tenofovir 5 mg/ml, standard CHOL/CHEMS
# [4] = HEPES pH 7.5, GLH 19/20 (2:1) 10 mg/ml, SA 2.5 mg/ml, tenofovir 5 mg/ml, standard CHOL/CHEMS
# [5] = HEPES pH 7.5, GLH 19/20 (2:1) 10 mg/ml, SA 3.5 mg/ml, tenofovir 5 mg/ml, standard CHOL/CHEMS
# [6] = HEPES pH 7.5, GLH 19/20 (2:1) 10 mg/ml, tenofovir 1 mg/ml, standard CHOL/CHEMS
# [7] = HEPES pH 7.5, GLH 19/20 (2:1) 10 mg/ml, tenofovir 2 mg/ml, ½ the standard amount of cholesterol and cholesteryl hemisuccinate
# [8] = HEPES pH 7.5, GLH 19/20 (2:1) 15 mg/ml, SA 2.5 mg/ml, tenofovir 5 mg/ml, standard CHOL/CHEMS
# [9] = HEPES pH 7.5, GLH 19/20 (2:1) 15 mg/ml, tenofovir 1 mg/ml, standard CHOL/CHEMS
# [10] = HEPES pH 7.5, GLH 19/20 (2:1) 15 mg/ml, tenofovir 2 mg/ml, ½ the standard amount of cholesterol and cholesteryl hemisuccinate
# [11] = HEPES pH 8, GLH 19/20 (2:1) 15 mg/ml, SA 2.5 mg/ml, tenofovir 5 mg/ml, standard CHOL/CHEMS
# [12] = HEPES pH 8, GLH 19/20 (2:1) 15 mg/ml, tenofovir 1 mg/ml, standard CHOL/CHEMS
# [13] = TRIS pH 8, GLH 19/20 (2:1) 10 mg/ml, SA 2.5 mg/ml, tenofovir 5 mg/ml, standard CHOL/CHEMS
# [14] = TRIS pH 8, GLH 19/20 (2:1) 10 mg/ml, tenofovir 1 mg/ml, standard CHOL/CHEMS
# [15] = TRIS pH 8, GLH 19/20 (2:1) 10 mg/ml, tenofovir 2 mg/ml, standard CHOL/CHEMS
# [16] = TRIS pH 8, GLH 19/20 (2:1) 10 mg/ml, tenofovir 5 mg/ml, standard CHOL/CHEMS
# [17] = TRIS pH 8, GLH 19/20 (2:1) 20 mg/ml, tenofovir 5 mg/ml, standard CHOL/CHEMS
compound,measurement,setting,value
"C[C@H](Cn1cnc2c(N)ncnc21)OCP(=O)(O)O [tenofovir, ({[(2R)-1-(6-amino-9H-purin-9-yl)propan-2-yl]oxy}methyl)phosphonic acid]",CPE rating,[1],1
same,% tenofovir encapsulation,[2]; [3],15.9%
same,Ratio of tenofovir encapsulated to bolaamphiphiles,[2]; [3],0.062 mg/mg
same,% tenofovir encapsulation,[2]; [4],21.4%
same,Ratio of tenofovir encapsulated to bolaamphiphiles,[2]; [4],0.107 mg/mg
same,% tenofovir encapsulation,"[2]; HEPES pH 7.5, GLH 19/20 (2:1) 10 mg/ml, SA 2.5 mg/ml, tenofovir 5 mg/ml, ½ the standard amount of cholesterol and cholesteryl hemisuccinate",**22%
same,% tenofovir encapsulation,[2]; [5],30.9%
same,Ratio of tenofovir encapsulated to bolaamphiphiles,[2]; [5],0.155 mg/mg
same,% tenofovir encapsulation,[2]; [6],17.4%
same,mg tenofovir encapsulated/mg bola,[2]; [6],0.026 mg tenofovir encapsulated/mg bola
same,mg tenofovir encapsulated/mg bola,"[2]; HEPES pH 7.5, GLH 19/20 (2:1) 10 mg/ml, tenofovir 2 mg/ml, standard CHOL/CHEMS",0.024 mg tenofovir encapsulated/mg bola
same,% tenofovir encapsulation,[2]; [7],**16.5%
same,mg tenofovir encapsulated/mg bola,[2]; [7],**0.033 mg tenofovir encapsulated/mg bola
same,% tenofovir encapsulation,"[2]; HEPES pH 7.5, GLH 19/20 (2:1) 10 mg/ml, tenofovir 5 mg/ml, standard CHOL/CHEMS",7.8%
same,% tenofovir encapsulation,"[2]; HEPES pH 7.5, GLH 19/20 (2:1) 10 mg/ml, tenofovir 7.5 mg/ml, standard CHOL/CHEMS",3.8%
same,% tenofovir encapsulation,[2]; [8],18.6%
same,Ratio of tenofovir encapsulated to bolaamphiphiles,[2]; [8],0.08 mg/mg
same,% tenofovir encapsulation,[2]; [9],38.6%
same,mg tenofovir encapsulated/mg bola,[2]; [9],0.026 mg tenofovir encapsulated/mg bola
same,% tenofovir encapsulation,"[2]; HEPES pH 7.5, GLH 19/20 (2:1) 15 mg/ml, tenofovir 2 mg/ml, standard CHOL/CHEMS","18.4, %"
same,% tenofovir encapsulation,[2]; [10],**22.5%
same,mg tenofovir encapsulated/mg bola,[2]; [10],**0.033 mg tenofovir encapsulated/mg bola
same,% tenofovir encapsulation,[2]; [11],23%
same,Ratio of tenofovir encapsulated to bolaamphiphiles,[2]; [11],0.077 mg/mg
same,% tenofovir encapsulation,[2]; [12],31.2%
same,mg tenofovir encapsulated/mg bola,[2]; [12],0.021 mg tenofovir encapsulated/mg bola
same,% tenofovir encapsulation,"[2]; TRIS pH 8, GLH 19/20 (2:1) 5 mg/ml, tenofovir 1 mg/ml in hydration solution, standard CHOL/CHEMS",4%
same,mg tenofovir encapsulated/mg bola,"[2]; TRIS pH 8, GLH 19/20 (2:1) 5 mg/ml, tenofovir 1 mg/ml, standard CHOL/CHEMS",0.008 mg tenofovir encapsulated/mg bola
same,% tenofovir encapsulation,[2]; [13],12.7%
same,Ratio of tenofovir encapsulated to bolaamphiphiles,[2]; [13],0.064 mg/mg
same,% tenofovir encapsulation,[2]; [14],11%
same,mg tenofovir encapsulated/mg bola,[2]; [14],0.011 mg tenofovir encapsulated/mg bola
same,% tenofovir encapsulation,[2]; [15],9%
same,mg tenofovir encapsulated/mg bola,[2]; [15],0.018 mg tenofovir encapsulated/mg bola
same,% tenofovir encapsulation,[2]; [16],6%
same,mg tenofovir encapsulated/mg bola,[2]; [16],0.03 mg tenofovir encapsulated/mg bola
same,mg tenofovir encapsulated/mg bola,"[2]; TRIS pH 8, GLH 19/20 (2:1) 15 mg/ml, tenofovir 1 mg/ml, standard CHOL/CHEMS",0.016 mg tenofovir encapsulated/mg bola
same,% tenofovir encapsulation,"[2]; TRIS pH 8, GLH 19/20 (2:1) 15 mg/ml, tenofovir 1 mg/ml, standard CHOL/CHEMS, ±SEM",24.5 ± 2.1%
same,mg tenofovir encapsulated/mg bola,"[2]; TRIS pH 8, GLH 19/20 (2:1) 15 mg/ml, tenofovir 2 mg/ml, standard CHOL/CHEMS",0.03 mg tenofovir encapsulated/mg bola
same,% tenofovir encapsulation,"[2]; TRIS pH 8, GLH 19/20 (2:1) 15 mg/ml, tenofovir 2 mg/ml, standard CHOL/CHEMS, ±SEM",21 ± 2.1%
same,mg tenofovir encapsulated/mg bola,"[2]; TRIS pH 8, GLH 19/20 (2:1) 15 mg/ml, tenofovir 5 mg/ml, standard CHOL/CHEMS",0.03 mg tenofovir encapsulated/mg bola
same,% tenofovir encapsulation,"[2]; TRIS pH 8, GLH 19/20 (2:1) 15 mg/ml, tenofovir 5 mg/ml, standard CHOL/CHEMS, ±SEM",9 ± 1.4%
same,mg tenofovir encapsulated/mg bola,"[2]; TRIS pH 8, GLH 19/20 (2:1) 20 mg/ml, tenofovir 1 mg/ml, standard CHOL/CHEMS",0.02 mg tenofovir encapsulated/mg bola
same,% tenofovir encapsulation,"[2]; TRIS pH 8, GLH 19/20 (2:1) 20 mg/ml, tenofovir 1 mg/ml, standard CHOL/CHEMS, ±SEM",31.4 ± 4.5%
same,mg tenofovir encapsulated/mg bola,"[2]; TRIS pH 8, GLH 19/20 (2:1) 20 mg/ml, tenofovir 2 mg/ml, standard CHOL/CHEMS",0.022 mg tenofovir encapsulated/mg bola
same,% tenofovir encapsulation,"[2]; TRIS pH 8, GLH 19/20 (2:1) 20 mg/ml, tenofovir 2 mg/ml, standard CHOL/CHEMS, ±SEM",22.5 ± 3.5%
same,% tenofovir encapsulation,[2]; [17],9.3%
same,mg tenofovir encapsulated/mg bola,[2]; [17],0.023 mg tenofovir encapsulated/mg bola
same,% of the added tenofovir encapsulated,"[2]; optimal formulation for PK: 10 mg GLH 19/20 2/1, 1 mg GLH-55b, 2.5 mg stearyl amine, 5 mg tenofovir per mL, HEPES",20%
same,amount of the encapsulated tenofovir,[2]; optimal formulation used in first set of PK experiments,1 mg/mL vesicles
same,percent of tenofovir encapsulation,"[2]; various vesicle formulations, conditions that yielded maximum encapsulation (before optimization)",18-20%
